# Data: patent US20260250290A1 (BRISTOL-MYERS SQUIBB COMPANY, priority 2023, published 2026)
# Target: T1, SGK1 (Homo sapiens, UniProt O00141)
# T1 sequence (O00141 1-431): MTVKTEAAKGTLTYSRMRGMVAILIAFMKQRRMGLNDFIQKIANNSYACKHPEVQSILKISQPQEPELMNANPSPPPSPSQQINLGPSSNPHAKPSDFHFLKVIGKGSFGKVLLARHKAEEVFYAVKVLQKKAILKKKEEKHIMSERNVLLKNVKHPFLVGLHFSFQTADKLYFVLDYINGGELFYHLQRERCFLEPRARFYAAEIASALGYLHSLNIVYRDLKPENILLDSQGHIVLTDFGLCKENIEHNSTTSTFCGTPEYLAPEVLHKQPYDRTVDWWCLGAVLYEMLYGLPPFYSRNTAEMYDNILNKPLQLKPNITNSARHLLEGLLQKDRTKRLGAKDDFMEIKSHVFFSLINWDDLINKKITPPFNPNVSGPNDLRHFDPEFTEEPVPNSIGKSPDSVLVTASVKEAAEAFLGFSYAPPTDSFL
# Assay: SGK1 inhibition Assay B (Echo mass spectrometry of phosphorylated peptide product)
# Type: biochemical
# Conditions: 60 min at room temperature
row,Structure (SMILES),IC50
1,"CN1CCN(c2cccc(C(=O)N[C@@H]3CCCN(c4cc(-c5ccc(F)c(F)c5)n5ncnc(N)c45)C3)n2)CC1 [Example 811, (R)-N-(1-(4-amino-7-(3,4-difluorophenyl)pyrrolo[2,1-f][1,2,4]triazin-5-yl)piperidin-3-yl)-6-(4-methylpiperazin-1-yl)picolinamide]",45 nM
2,"CC(C)N1CC2(CN(c3cccc(C(=O)N[C@@H]4CCCN(c5cc(-c6ccc(-n7cnnn7)c(F)c6)n6ncnc(N)c56)C4)n3)C2)C1 [Example 816, (R)-N-(1-(4-amino-7-(3-fluoro-4-(1H-tetrazol-1-yl)phenyl)pyrrolo[2,1-f][1,2,4]triazin-5-yl)piperidin-3-yl)-6-(6-isopropyl-2,6-diazaspiro[3.3]heptan-2-yl)picolinamide]",6 nM
3,"CC(C)N1CC2(CN(c3cccc(C(=O)N[C@@H]4CCCN(c5cc(-c6ccc(C#N)nc6)n6ncnc(N)c56)C4)n3)C2)C1 [Example 817, (R)-N-(1-(4-amino-7-(6-cyanopyridin-3-yl)pyrrolo[2,1-f][1,2,4]triazin-5-yl)piperidin-3-yl)-6-(6-isopropyl-2,6-diazaspiro[3.3]heptan-2-yl)picolinamide]",14 nM
4,"CC(C)N1CC2(CN(c3cccc(C(=O)N[C@@H]4CCCN(c5cc(-c6ccc(C#N)c(F)c6)n6ncnc(N)c56)C4)n3)C2)C1 [Example 818, (R)-N-(1-(4-amino-7-(4-cyano-3-fluorophenyl)pyrrolo[2,1-f][1,2,4]triazin-5-yl)piperidin-3-yl)-6-(6-isopropyl-2,6-diazaspiro[3.3]heptan-2-yl)picolinamide]",3 nM
5,"COC(=O)N1CC=C(c2cc(N3CCC[C@@H](NC(=O)c4cccc(N5CC6(C5)CN(C(C)C)C6)n4)C3)c3c(N)ncnn23)C1 [Example 819, methyl (R)-3-(4-amino-5-(3-(6-(6-isopropyl-2,6-diazaspiro[3.3]heptan-2-yl)picolinamido)piperidin-1-yl)pyrrolo[2,1-f][1,2,4]triazin-7-yl)-2,5-dihydro-1H-pyrrole-1-carboxylate]",21 nM
6,CNC(=O)c1ccc(-c2cc(N3CCC[C@@H](NC(=O)c4cccc(N5CC6(C5)CN(C(C)C)C6)n4)C3)c3c(N)ncnn23)cn1 [Example 820],21 nM
7,"CC(C)N1CC2(CN(c3cccc(C(=O)N[C@@H]4CCCN(c5cc(-c6ccc7cnn(C)c7c6)n6ncnc(N)c56)C4)n3)C2)C1 [Example 821, (R)-N-(1-(4-amino-7-(1-methyl-1H-indazol-6-yl)pyrrolo[2,1-f][1,2,4]triazin-5-yl)piperidin-3-yl)-6-(6-isopropyl-2,6-diazaspiro[3.3]heptan-2-yl)picolinamide]",69 nM
8,Cc1cc(-c2cc(N3CCC[C@@H](NC(=O)c4cccc(N5CC6(C5)CN(C(C)C)C6)n4)C3)c3c(N)ncnn23)ccc1-n1cnnn1 [Example 822],4 nM
9,"CC(C)N1CC2(CN(c3cccc(C(=O)N[C@@H]4CCCN(c5cc(-c6ccc(-n7cnnn7)c(F)c6F)n6ncnc(N)c56)C4)n3)C2)C1 [Example 823, (R)-N-(1-(4-amino-7-(2,3-difluoro-4-(1H-tetrazol-1-yl)phenyl)pyrrolo[2,1-f][1,2,4]triazin-5-yl)piperidin-3-yl)-6-(6-isopropyl-2,6-diazaspiro[3.3]heptan-2-yl)picolinamide]",18 nM
10,"CC(C)N1CC2(CN(c3cccc(C(=O)N[C@@H]4CCCN(c5cc(-c6ccc(-n7cnnn7)c(CO)c6)n6ncnc(N)c56)C4)n3)C2)C1 [Example 824, (R)-N-(1-(4-amino-7-(3-(hydroxymethyl)-4-(1H-tetrazol-1-yl)phenyl)pyrrolo[2,1-f][1,2,4]triazin-5-yl)piperidin-3-yl)-6-(6-isopropyl-2,6-diazaspiro[3.3]beptan-2-yl)picolinamide]",10 nM
11,"CC(C)N1CC2(CN(c3cccc(C(=O)N[C@@H]4CCCN(c5cc(-c6cc(F)c(-n7cnnn7)cc6F)n6ncnc(N)c56)C4)n3)C2)C1 [Example 825, (R)-N-(1-(4-amino-7-(2,5-difluoro-4-(1H-tetrazol-1-yl)phenyl)pyrrolo[2,1-f][1,2,4]triazin-5-yl)piperidin-3-yl)-6-(6-isopropyl-2,6-diazaspiro[3.3]heptan-2-yl)picolinamide]",7 nM
